Source: patent US20110195924A1, “Methods of Inhibiting the Interaction Between S100P and the Receptor for Advanced Glycation End-Products” (priority 2008, published 2011)
“Also recorded” adds a separate entry of the source.

Legend:
S100P binding with RAGE = molecular target: T1, S100P binding with RAGE (Homo sapiens, UniProt P25815); test: ELISA of S100P binding to RAGE (sRAGE coated plate); conditions: analogs at 10-fold lower concentration than cromolyn
T1 construct: full-length human S100P cDNA (NM_005980) was cloned into the pTrcHis2 vector; His; made in house; host or cells: bacteria (S100P)
T1 sequence (P25815 1-95): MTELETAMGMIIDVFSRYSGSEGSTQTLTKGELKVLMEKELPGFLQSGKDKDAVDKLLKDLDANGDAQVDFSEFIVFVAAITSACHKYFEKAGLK
Method: After removing un-bound S100P by washing with detergent, the bound S100P and RAGE complex was quantified by adding HRP labeled antibody against S100P. *, P=0.04 C5 1 μM versus cromolyn 5 μM. Two-tailed two-sample (unpaired) Student's t-tests were used to determine P values.
The plate was washed and the amount of bound S100P was quantitated using anti-S100P antibody.
The binding of S100P to RAGE was determined using an ELISA assay. sRAGE was attached to the dish and recombinant S100P (50 ng) was added with or without the indicated concentrations of cromolyn analogs. The plate was washed and the amount of bound S100P was quantitated using anti-S100P antibody.

MPanc96 tumors = test: MPanc96 pancreatic tumor growth and survival in mice (analogs); assay type: in vivo
Method: (§1) Various cromolyn-based analogs were developed. The effects of the analogs on binding of S100P with RAGE were evaluated for the analogs using a sandwich ELISA. The effectiveness of the analogs to block cancer cell proliferatin and increase apoptosis in vitro were analyzed with and without cisplatin, 5-flurouracil and gemcitabine by MTS and FACS analysis. We also examined the ability of the analogs to inhibit S100P activation of NFkB signaling in cancer cells in vitro and in vivo. Finally, the effects of the novel analogs on tumor growth in vivo was evaluated. One analog, C5OH is shown below:
Animals were implanted with MPanc96 cells, a gemcitabine resistant model of pancreatic cancer, and then treated with gemcitabine, C5OH, or the combination. […] Noteworthy, the addition of the hydroxyl group to the carbon chain in C5 allows easy modifications of this molecule. The hydroxyl can be substituted with fluoride that can be labeled for in vivo PET imaging. This hydroxyl can also be used to develop a pro-drug form of C5 by attaching other components with an ester bond.

pancreatic cancer cells = test: Apoptosis of pancreatic cancer cells with cromolyn analogs and cytotoxic drugs; assay type: cell-based
Method: as §1
In this in vitro study, pancreatic cancer cells were treated with gemcitabine alone or in the presence of cromolyn analogs. The cromolyn analogs themselves have very little effect on the rates of cellular apoptosis, supporting their absence of general toxicity. However, all cromolyn analogs increased the killing of pancreatic cancer cells by gemcitabine.

NFkB activity = test: S100P induced NFkB activity in cancer cells (analogs); assay type: cell-based
Method: as §1, with “evaluated.” for “evaluated. One analog, C5OH is shown below:”

Panc-1 cells [1] = test: Panc-1 cell proliferation (MTS); assay type: cell-based; conditions: Panc-1
Method: Panc-1 pancreatic adenocarcinoma cells (1.0×10^3 cells/well) were cultured in the presence or absence of S100P (100 nM) and with or without cromolyn (100 μM), and cell proliferation was analyzed at 24, 48, and 72 hours. Means and 95% confidence intervals of three independent experiments performed in triplicate are shown. *, P=0.001, S100P alone versus S100P+cromolyn.
Panc-1 cells were plated at 1.0×10^3 cells/well and treated with platelet-derived growth factor (10 ng/mL) with or without cromolyn (100 μM), and cell proliferation was analyzed after 48 hours. Means and 95% confidence intervals of three independent experiments performed in triplicate are shown. *, P=0.004 PDGF and P=0.022 cromolyn+PDGF versus control.
Growth of Panc-1 and BxPC3 pancreatic adenocarcinoma cells was analyzed using MTS reagent (Promega, Madison, Wis.) according to the manufacturer's directions. Purified S100P (100 nM final concentration) with or without cromolyn (100 μM final concentration) was added to Panc-1 cells. Only cromolyn (0-100 μM) was added to BxPC-3 cells, which express endogenous S100P. For both cell models, 1.0×10^3 cells/well were plated in 96-well culture dishes. Cells were treated with S100P, PDGF, or cromolyn, or a combination, followed immediately by treatment with either S100P or PDGF. MTS (20 μL per well) was added to cells at various times, and the mixture was incubated for 1 hour at 37° C. Samples were then read at 490 nm (as O.D. units) on a uQuant-Microplate Spectrophotometer (Bio-Tek Services Inc., Richmond, Va.). The assay was performed three times in triplicate.

Panc-1 cells [2] = test: Panc-1 matrigel invasion assay; assay type: cell-based; conditions: Panc-1; S100P 100 nM alone, 24 hours
Method: FIGS. 2A-2D show the effect of cromolyn on pancreatic cancer cell invasion. Panc-1 and BxPC-3 cells were plated in Bio-coat matrigel and control chambers and cultured in serum-free culture media. After 24 hours non-invaded cells in the upper chamber were removed, and cells that invaded onto the lower surface of the membrane were counted from five adjacent fields. […] Data are expressed as the percent invasion through the matrigel matrix and membrane relative to migration through the control membrane. Means and 95% confidence intervals from three independent experiments performed in triplicate are shown. Two-tailed two-sample (unpaired) Student's t-tests were used to determine P values.
Panc-1 and BxPC-3 cells were seeded in BIOCOAT matrigel invasion chambers and in control chambers without matrigel (Becton-Dickinson, Bedford, Mass.) according to the manufacturer's protocol. Panc-1 cells were seeded with S100P (100 nM) with or without cromolyn (100 μM), and BxPC-3 cells were seeded with or without cromolyn (1-100 μM). Briefly, 2.0×10^5 cells in 300 μL top solution (serum-free media) were added to each chamber and allowed to invade matrigel for 24 hours at 37° C. in a 5% CO2 atmosphere. The non-invading cells on the upper surface of membrane were removed from the chambers with a cotton swab, and the invading cells on the lower surface of the membrane were fixed and stained using a Diff-Quick stain kit (Becton Dickinson, Bedford, Mass.). After two washes with water, the chambers were allowed to air dry. The numbers of invading cells in five adjacent microscope fields per membrane were counted at 20× magnification to obtain the average number of cells per field. Data are expressed as the percent invasion through the matrigel matrix and membrane relative to the migration through the control membrane. The assays were performed three times.

NFκB promoter activity = test: NFκB luciferase reporter assay in Panc-1 cells; assay type: cell-based; conditions: 5 hours
Method: FIGS. 3A, 3B, and 3C show the effect of cromolyn on S100P stimulated NFκB promoter activity in pancreatic cancer cells in vitro and in vivo. Panc-1 and BxPC-3 pancreatic cancer cell lines stably expressing an NFκB luciferase reporter were examined for the effects of S100P and cromolyn. […] Means and 95% confidence intervals are shown for three independent experiments performed in triplicate. *, P=0.022, †, P<0.001, and P<0.001 versus control; #, P=0.005 versus 100 nM S100P alone. […] Means and 95% confidence intervals are shown for three independent experiments performed in triplicate. *, P=0.003, †, P<0.001 versus control. […] After 1 week, tumor growth was assessed and NFκB activity was analyzed using an IVIS system (Xenogen Corp., Alameda, Calif.) after injecting mice with D-luciferin (150 mg per kg body weight) (0 time point). The mice were treated with cromolyn (5 mg per kg body weight by intraperitoneal injection), and NFκB luciferase activity was analyzed again at 24 and 48 hours. *, P=0.005 versus control. Means and 95% confidence intervals are shown for two independent experiments (n=4 mice per group). Two-tailed two-sample (unpaired for in vitro and paired for in vivo studies) Student's t-tests were used to determine P values.
To study pancreatic cancer cell NFκB activity, a lentivirus NFκB luciferase reporter gene construct was developed. The NFκB luciferase reporter gene was excised and isolated from the pNF-κB-Luc Vector (Clonetec, Mountain View, Calif.) and cloned into the lentiviral vector FG9 (Gift from Dr. Xiao-Feng Qin, Dept. of Immunology, M.D. Anderson Cancer Center replacing the CMV/LTR and UBiC promoters, to form Lenti-NFκB-Luc. Lentiviral NFκB vector were co-transfected with packaging constructs pRSVREV, pMDLg/pRRE, and the VSV-G expression plasmid pHCMVG, and lentivirus was produced in 293T cells by the calcium transfection method, as previously described in Qin, et al., Inhibiting HIV-1 infection in human T cells by lentiviral-mediated delivery of small interfering RNA against CCR5; Proc. Natl. Acad. Sci. U.S.A. 2003 Jan. 7; 100(1):183-8. […] Functional validation of NFκB reporter activity was conducted in vitro using TNF-α (20 ng/mL, Sigma, St. Louis, Mo.) as a positive control.
BxPC-3 and Panc-1 cells stably expressing a Lenti-NFkB-luc reporter construct were treated with S100P, cromolyn, or the combination for 5 hours. D-luciferin (150 μg/mL) was added to the cells, and luciferase activity was measured using an IVIS bioluminescence system (Xenogen Co. Alameda, Calif.). Each experiment was conducted three times in triplicate.

[3] = MPanc96, gemcitabine resistant model, to a greater extent than gemcitabine

Molecule: O=C([O-])c1cc(=O)c2c(OCCC(O)CCOc3cccc4oc(C(=O)[O-])cc(=O)c34)cccc2o1.[Na+].[Na+] [C5OH]
- potency in blocking S100P binding to RAGE relative to cromolyn or C5 (S100P binding with RAGE): nearly equally potent and more efficient than cromolyn; also recorded: at least as effective as the C5-analog
- survival of mice with pancreatic tumors (MPanc96 tumors; [3]): prolongs survival
- tumor growth (MPanc96 tumors; [3]): reduces tumor growth
- effects relative to gemcitabine (MPanc96 tumors; MPanc96 model): superior to those of gemcitabine
- inhibition of tumor growth and survival in vivo, relative to cromolyn (MPanc96 tumors; mouse, in vivo): superior to cromolyn
- cancer cell apoptosis in response to various cytoxic treatments, relative to cromolyn (pancreatic cancer cells): at lesser concentrations and to a greater extent than did cromolyn
- killing of pancreatic cancer cells by gemcitabine (pancreatic cancer cells; with gemcitabine, C5 and C5OH at 10-fold lower concentration than cromolyn): worked equally well
- inhibition of S100P induced NFkB activity relative to cromolyn (NFkB activity): more potently and effectively than did cromolyn

Molecule: PDGF
- cell proliferation, difference versus control (Panc-1 cells [1]; PDGF 10 ng/mL, 48 hours): 0.2 MTS units
- cell proliferation, mean (Panc-1 cells [1]; PDGF 10 ng/mL, 48 hours, control mean 0.5): 0.7 MTS units

B1: S100P: purified His-tagged full-length human S100P protein, 95-amino acid member of the S100 family (protein, UniProt P25815 1-95, looked up)
Protein S100-P: MTELETAMGMIIDVFSRYSGSEGSTQTLTKGELKVLMEKELPGFLQSGKDKDAVDKLLKDLDANGDAQVDFSEFIVFVAAITSACHKYFEKAGLK
modifications: His tag
notes: purified His-tagged full-length human S100P protein, 95-amino acid member of the S100 family
- cells invaded, mean (Panc-1 cells [2]): 58.0%
- cell proliferation, mean (Panc-1 cells [1]; S100P 100 nM alone): 0.93 MTS units
- NFκB promoter activity, difference versus 0 nM (NFκB promoter activity; S100P 1 nM): 3544 photons/sec
- NFκB promoter activity, mean (NFκB promoter activity; S100P 1 nM, 0 nM mean 3358): 6902 photons/sec
- NFκB promoter activity, difference versus 0 nM (NFκB promoter activity; S100P 10 nM): 5400 photons/sec
- NFκB promoter activity, mean (NFκB promoter activity; S100P 10 nM): 8758 photons/sec
- NFκB promoter activity, difference versus 0 nM (NFκB promoter activity; S100P 100 nM): 11100 photons/sec
- NFκB promoter activity, mean (NFκB promoter activity; S100P 100 nM): 14460 photons/sec
